Test results as given in patent US8067009B1, “Metalloproteinase oligopeptides and their therapeutic use” (priority 2011, dated 2011).
Where no end group is shown, it is not given here.

Assays:
[1] = system: human cervical cancer HeLa cells; experiment: Matrigel invasion with anti-sera from immunized mice; assay type: cell-based; details: anti-sera 1:100 dilution, 24 hours, FIGS. 3A-3D
Method: Human cervical cancer (Hela) and murine melanoma B16F0 cells obtained from ATCC (American Type Culture Collection, Rockville, Md.) were maintained in Dulbecco's modified Eagle's medium supplemented with 10% fetal bovine serum and antibiotics. The media and sera used were obtained from ATCC, and antibiotics (penicillin and streptomycin) were from Gibco BRL, Long Island, N.Y.
Invasion studies were conducted using Matrigel™ (Becton Dickinson) inserts in 24-well plates. Suspended in medium containing anti-sera from the experimental immunized mice 1:100 dilution, human cervical cancer HeLa cells seeded on the insert in the well. The well has human dermal fibroblast primed media as chemotaxtant. The plates with the inserts were then incubated in a culture incubator equilibrated with 95% air and 5% CO: for 24 hours. After incubation, the media from the wells were withdrawn. The cells on the upper surface of the insert were gently scrubbed away with cotton swabs. The cells that had penetrated the Matrigel™ membrane were stained with hematoxylin and eosin (H&E) and visually counted under the microscope.

anti-peptide mouse IgG = experiment: Anti-peptide immune response assay (Elisa) on serum of immunized mice; assay type: in vivo, Male C57BL/6 mice; details: for Elisa Test pep before B16FO given / Elisa Test pep after B16FO given: read at 450 nm
Method: In another embodiment, the synthesized oligopeptides were biotinylated at N-terminal using four carbon spacers by Genscript (Pitcataway, N.J. 08554 USA) and conjugated to KLH protein. In an experiment performed on mice animals were procured, immunized, tumor induced and observed for effectiveness of the treatment of oligopeptide-induced immunotherapy.
The injections were prepared using 100 μl l of KLH conjugated biotinylated peptides and 100 μl of complete Freund's adjuvant (Sigma, St. Louis, Mo.).
(§1) Male C57BL/6 mice 6 weeks of age on arrival were purchased from Simonsen Laboratories, Gilroy, Calif. and maintained in microisolator cage under pathogen-free conditions on a 12-h light/12-h dark schedule for a week. All animals were cared for in accordance with institutional guidelines for the care and use of experimental animals. After housing for a week, the mice (n=5/group) were immunized by intraperitoneal injection on Day 0, and incomplete Freund adjuvant (Sigma) on Day 7, 14 and 28. The blood samples were tested for their immune response by standard Elisa test using microtiter plates. Repeating injections of synthetic peptides in mice produce an immune response to specific individual peptides. Various dilutions were tried and examples of dilutions tried are 1:100, 1:1000 and 1:10000.
All four peptides were conjugated covalently to keyhole limpet hemocyanin (KLH) protein. In a typical experiment 1 mg of the peptide, 4 mg of KLH was dissolved in 5 ml of 0.01 M NaHCO3 and 2 μl of glutaraldehyde and stirred overnight. At the end 100 μl of 1M glycine ethyl ester to the final concentration of 0.1 M and left for 30 min at room temperature. Then precipitated with 4-5 vol of cold acetone at −70 C for 30 minute. Then briefly warmed at room temperature and pellet at 10,000 g for 10 min. The pellet was dissolved in 1 ml of 0.1M NaHCO3 and stored at −20° C.
Microtiter plates were coated with individual peptide in 100 µl/well […] carbonate buffer, pH 9.5 for 20 h at 20° C. After washing, wells were incubated with serial dilution of mouse serum in PBS/0.5% BSA, Tween 20 (binding buffer, BB). After washing, well were incubated with 100 µl/well rabbit anti-mouse IgG polyclonal antibody conjugated with horseradish peroxidase (HRP) in BB for 30 rain at 37° C. After washing, the titer of anti-peptide mouse IgG was determined by color reaction with TMB substrate solution at 450 nm.

[2] = system: murine melanoma B16F0 cells; experiment: Tumor growth after challenge of immunized mice with melanoma cells; assay type: in vivo, Male C57BL/6 mice; details: visual, FIG. 7 A-E
Excerpt: as §1
After dosing the mice, on 45th day, mice were bleed through orbital puncture and blood was collected in 2-ml micro centrifuged tube. After testing for immune response against individual peptides, the mice in each group were inoculated subcutaneously with 0.5×10^6 in 0.2 ml PBS. After injection, the mice were returned the cages and fed regular Purina mouse chow diet. After four weeks, the mice were sacrificed and their tumors were excised. Dimensions (length and width) of tumors were measured using digital caliper, and tumor burden was calculated using the following formula: […].

[3] = column 5, serum dilution 1:1000
[4] = column 5, serum dilution 1:10000
[5] = column 6, serum dilution 1:1000
[6] = column 6, serum dilution 1:10000
[7] = column 7, serum dilution 1:1000
[8] = column 7, serum dilution 1:10000
[9] = column 8, serum dilution 1:1000
[10] = column 8, serum dilution 1:10000
[11] = column 9, serum dilution 1:1000
[12] = column 9, serum dilution 1:10000
[13] = column 10, serum dilution 1:100
[14] = column 10, serum dilution 1:1000
[15] = column 10, serum dilution 1:10000
[16] = column 11, serum dilution 1:100
[17] = column 11, serum dilution 1:1000
[18] = column 11, serum dilution 1:10000
[19] = column 12, serum dilution 1:100
[20] = column 12, serum dilution 1:1000
[21] = column 12, serum dilution 1:10000

Substance | Elisa Test pep before B16FO given (anti-peptide mouse IgG; column 5, serum dilution 1:100) | Elisa Test pep before B16FO given (anti-peptide mouse IgG; [3]) | Elisa Test pep before B16FO given (anti-peptide mouse IgG; [4]) | Elisa Test pep before B16FO given (anti-peptide mouse IgG; column 6, serum dilution 1:100) | Elisa Test pep before B16FO given (anti-peptide mouse IgG; [5]) | Elisa Test pep before B16FO given (anti-peptide mouse IgG; [6]) | Elisa Test pep before B16FO given (anti-peptide mouse IgG; column 7, serum dilution 1:100) | Elisa Test pep before B16FO given (anti-peptide mouse IgG; [7]) | Elisa Test pep before B16FO given (anti-peptide mouse IgG; [8]) | Elisa Test pep before B16FO given (anti-peptide mouse IgG; column 8, serum dilution 1:100) | Elisa Test pep before B16FO given (anti-peptide mouse IgG; [9]) | Elisa Test pep before B16FO given (anti-peptide mouse IgG; [10]) | Elisa Test pep after B16FO given (anti-peptide mouse IgG; column 9, serum dilution 1:100) | Elisa Test pep after B16FO given (anti-peptide mouse IgG; [11]) | Elisa Test pep after B16FO given (anti-peptide mouse IgG; [12]) | Elisa Test pep after B16FO given (anti-peptide mouse IgG; [13]) | Elisa Test pep after B16FO given (anti-peptide mouse IgG; [14]) | Elisa Test pep after B16FO given (anti-peptide mouse IgG; [15]) | Elisa Test pep after B16FO given (anti-peptide mouse IgG; [16]) | Elisa Test pep after B16FO given (anti-peptide mouse IgG; [17]) | further results
-C-H-F-P-F-I-F-E-G-R-S-Y-S-A-C- (CHFPFIFEGRSYSAC; cysteine pairing not given here; also: biotinylated, KLH conjugate) [MMP-9 A-1, MMP-9 oligopeptide, biotinylated and conjugated to KLH for immunization] | 3.898 | 3.402 | .394 | 3.868 | 1.901 | .274 | 3.843 | 1.033 | .228 | 3.895 | 2.127 | .330 | 3.897 | 3.624 | .645 | 3.864 | 1.875 | .244 | 3.820 | .999 | cells invading through the Matrigel compared to control [1]: more in number compared to MMP-9 A1 treated cells; Elisa Test pep after B16FO given (anti-peptide mouse IgG; [18]): .226; Elisa Test pep after B16FO given (anti-peptide mouse IgG; [19]): 3.87; Elisa Test pep after B16FO given (anti-peptide mouse IgG; [20]): 2.01; Elisa Test pep after B16FO given (anti-peptide mouse IgG; [21]): .22
-C-P-R-K-P-K-W-D-K-C- (CPRKPKWDKC; cysteine pairing not given here; also: biotinylated, KLH conjugate) [MMP-2 A-4, MMP-2 oligopeptide, biotinylated and conjugated to KLH for immunization] | 1.485 | .650 | .220 | 2.409 | .974 | .257 | 1.811 | .771 | .208 | 1.649 | .289 | .168 | 1.836 | .706 | .290 | 3.172 | 1.286 | .313 | 2.278 | .775 | intensity of immune response (anti-peptide mouse IgG; 1:100 dilution): slightly less; Elisa Test pep after B16FO given (anti-peptide mouse IgG; [18]): .230; Elisa Test pep after B16FO given (anti-peptide mouse IgG; [19]): 1.621; Elisa Test pep after B16FO given (anti-peptide mouse IgG; [20]): .294; Elisa Test pep after B16FO given (anti-peptide mouse IgG; [21]): .167
-D-R-D-K-L-F-G-F-C-P-T-R-A-D-S- (DRDKLFGFCPTRADS; also: biotinylated, KLH conjugate) [MMP-9 A-3, MMP-9 oligopeptide, biotinylated and conjugated to KLH for immunization] | 3.775 | .394 | .159 | 3.810 | 2.157 | .631 | 1.991 | .272 | .159 | 3.812 | 2.281 | .267 | 3.776 | .448 | .167 | 3.814 | 1.332 | .209 | 2.063 | .448 | size of excised tumors [2]: one of the tumors have completely disappeared; Elisa Test pep after B16FO given (anti-peptide mouse IgG; [18]): .158; Elisa Test pep after B16FO given (anti-peptide mouse IgG; [19]): 3.84; Elisa Test pep after B16FO given (anti-peptide mouse IgG; [20]): 2.34; Elisa Test pep after B16FO given (anti-peptide mouse IgG; [21]): .296
-D-T-D-D-R-F-G-F- (DTDDRFGF; also: biotinylated, KLH conjugate) [M MP-9 A-2, MMP-9 oligopeptide, biotinylated and conjugated to KLH for immunization] | 3.581 | .646 | .224 | 3.863 | 1.339 | .261 | 3.870 | 2.856 | .477 | 3.238 | .360 | .175 | 3.635 | .526 | .203 | 3.609 | .859 | .235 | 3.465 | .277 | Elisa Test pep after B16FO given (anti-peptide mouse IgG; [18]): .161; Elisa Test pep after B16FO given (anti-peptide mouse IgG; [19]): 3.86; Elisa Test pep after B16FO given (anti-peptide mouse IgG; [20]): .274; Elisa Test pep after B16FO given (anti-peptide mouse IgG; [21]): .348
